Results published in ChEMBL document CHEMBL1201862, “PubChem BioAssay data set” (2004).
Calls of active or inactive are those of the source.

Assays:
[1] = inhibitors of firefly luciferase expression or activity, dose response, H4 neuroglioma cells, luminescence (AID 1990); format: functional, cell-based
[2] = Luminescence Cell-Based Dose Response HTS to Identify Inhibitors of 5'UTR Stem-Loop Driven Prion Protein mRNA Translation in H4 Neuroglioblastoma Cells. [Related pubchem assays: 1827 (Project Summary), 1813 (Primary HTS)]; format: functional
[3] = inhibitors of SNCA 5'UTR-driven reporter translation, confirmation, H4 neuroglioma cells, luminescence (AID 1988); format: functional, cell-based
[4] = target: T1, Corticotropin-releasing factor receptor 2/Corticotropin-releasing factor-binding protein (Homo sapiens, UniProt P24387+Q13324); assay: activators of CRF receptor 2 with binding protein – uHTS hits, confirmation (AID 602473); format: functional; details: read-out: EC50_Mean
T1 sequence (Q13324 whole entry): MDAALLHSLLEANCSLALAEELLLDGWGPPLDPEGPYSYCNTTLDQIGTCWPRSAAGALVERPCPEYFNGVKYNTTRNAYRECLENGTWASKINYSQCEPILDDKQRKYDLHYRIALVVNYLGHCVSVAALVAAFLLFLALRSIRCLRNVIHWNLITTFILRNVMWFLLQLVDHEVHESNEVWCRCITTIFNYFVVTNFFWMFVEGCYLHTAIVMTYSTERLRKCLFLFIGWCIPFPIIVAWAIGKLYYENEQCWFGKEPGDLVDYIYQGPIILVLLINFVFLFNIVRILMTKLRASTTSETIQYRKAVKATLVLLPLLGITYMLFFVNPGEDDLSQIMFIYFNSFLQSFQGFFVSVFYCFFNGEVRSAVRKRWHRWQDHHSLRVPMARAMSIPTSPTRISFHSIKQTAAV
T1 sequence (P24387 whole entry): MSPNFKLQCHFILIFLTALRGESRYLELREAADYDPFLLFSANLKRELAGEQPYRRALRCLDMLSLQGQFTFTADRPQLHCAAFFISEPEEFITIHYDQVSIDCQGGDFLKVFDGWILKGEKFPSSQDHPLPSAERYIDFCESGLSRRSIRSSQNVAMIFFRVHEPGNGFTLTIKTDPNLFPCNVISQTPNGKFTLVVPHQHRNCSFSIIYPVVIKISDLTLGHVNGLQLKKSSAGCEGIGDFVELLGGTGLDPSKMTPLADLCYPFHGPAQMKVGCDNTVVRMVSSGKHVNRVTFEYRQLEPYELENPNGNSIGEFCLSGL

[5] = target: Paired box protein Pax-8 (Homo sapiens, UniProt Q06710); assay: inhibitors of PAX8-driven TPO luciferase reporter, dose response, RMG-I cells, cherry-pick (AID 687027); format: functional, cell-based;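 further: luciferase reporter driven by Pax8 target thyroperoxidase promoter measured by SteadyGlo luminescence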
[6] = target: T2, Streptokinase A (Streptococcus pyogenes serotype M1, UniProt P10520); assay: S. pyogenes streptokinase expression inhibitors, potency, dose response, plasminogen activation absorbance, OD405 (AID 1914); format: functional, Streptococcus pyogenes M1 GAS;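 further: secreted streptokinase activity via plasminogen activation per viability signal from cell pellet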
T2 sequence (P10520 whole entry): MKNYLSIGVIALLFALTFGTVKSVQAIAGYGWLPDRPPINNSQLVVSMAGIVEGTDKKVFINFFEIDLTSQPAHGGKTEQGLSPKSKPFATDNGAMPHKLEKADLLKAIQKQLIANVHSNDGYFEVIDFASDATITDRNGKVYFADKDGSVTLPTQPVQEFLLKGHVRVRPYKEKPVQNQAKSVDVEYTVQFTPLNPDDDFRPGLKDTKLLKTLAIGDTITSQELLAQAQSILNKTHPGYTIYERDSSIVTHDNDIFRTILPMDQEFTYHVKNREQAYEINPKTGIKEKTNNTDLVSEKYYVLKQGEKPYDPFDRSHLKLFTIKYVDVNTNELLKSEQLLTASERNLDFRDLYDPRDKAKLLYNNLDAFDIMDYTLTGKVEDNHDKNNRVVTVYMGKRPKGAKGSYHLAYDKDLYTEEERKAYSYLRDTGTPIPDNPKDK

[7] = test system: Streptococcus; assay: Group A Streptococcus viability loss, dose response, counter-screen for streptokinase expression inhibitor project, luminescence, BacTiterGlo (AID 1915); format: functional, organism-based;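 further: potency for reduction of bacterial viability or growth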
[8] = test system: Streptococcus sp. 'group A'; assay: growth inhibition of control SK(-) GAS strain, dose response, counter-screen for streptokinase expression inhibitor project, luminescence, kanamycin, BacTiterGlo, confirmation (AID 1900); format: functional, organism-based
[9] = target: Cytochrome P450 3A4 (Homo sapiens, UniProt P08684);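 further: CYP3A4 tested as one member of a cytochrome P450 panel screen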
[10] = target: T3, Cytochrome P450 1A2 (Homo sapiens, UniProt P05177);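 further: PubChem cytochrome P450 panel assay, CYP1A2 panel member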
T3 sequence (P05177 whole entry): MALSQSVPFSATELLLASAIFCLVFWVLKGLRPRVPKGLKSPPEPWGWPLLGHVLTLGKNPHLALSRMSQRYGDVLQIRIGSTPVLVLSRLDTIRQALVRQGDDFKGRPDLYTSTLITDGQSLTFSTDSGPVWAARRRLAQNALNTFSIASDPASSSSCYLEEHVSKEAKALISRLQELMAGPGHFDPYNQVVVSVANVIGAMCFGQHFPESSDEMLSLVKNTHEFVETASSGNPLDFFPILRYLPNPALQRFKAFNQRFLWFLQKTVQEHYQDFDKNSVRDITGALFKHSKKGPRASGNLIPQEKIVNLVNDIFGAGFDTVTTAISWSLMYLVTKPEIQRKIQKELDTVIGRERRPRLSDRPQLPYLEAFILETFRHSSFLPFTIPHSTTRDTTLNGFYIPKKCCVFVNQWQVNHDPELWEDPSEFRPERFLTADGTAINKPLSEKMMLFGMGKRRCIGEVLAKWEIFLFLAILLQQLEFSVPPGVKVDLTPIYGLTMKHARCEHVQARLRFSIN

[11] = target: Cytochrome P450 2C9 (Homo sapiens, UniProt P11712)
[12] = target: T4, Heat shock factor protein 1 (Mus musculus, UniProt P38532); assay: inhibition of MG132-induced HSE-luciferase signal, confirmation, cell-based, NIH3T3, luminescence, dose retest (AID 2382); format: functional;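 further: NIH3T3 fibroblasts with HSF1-driven luciferase reporter stressed by proteasome inhibitor MG132; luminescence from HSF1-driven luciferase expression after 8 hours of MG132 stress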
T4 sequence (P38532 whole entry): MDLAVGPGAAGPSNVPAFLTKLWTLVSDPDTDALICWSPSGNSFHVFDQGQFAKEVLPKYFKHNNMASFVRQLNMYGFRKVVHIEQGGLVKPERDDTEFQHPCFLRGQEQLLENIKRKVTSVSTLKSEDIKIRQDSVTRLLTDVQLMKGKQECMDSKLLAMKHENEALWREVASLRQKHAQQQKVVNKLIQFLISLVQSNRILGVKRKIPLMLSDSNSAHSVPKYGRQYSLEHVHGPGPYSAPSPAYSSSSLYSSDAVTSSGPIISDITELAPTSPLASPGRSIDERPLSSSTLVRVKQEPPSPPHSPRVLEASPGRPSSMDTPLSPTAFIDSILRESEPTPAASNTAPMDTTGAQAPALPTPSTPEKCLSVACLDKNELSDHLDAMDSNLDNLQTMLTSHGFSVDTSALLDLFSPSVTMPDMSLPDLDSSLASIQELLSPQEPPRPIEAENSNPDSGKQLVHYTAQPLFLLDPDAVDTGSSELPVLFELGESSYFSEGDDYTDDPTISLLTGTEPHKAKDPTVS

[13] = target: Cytochrome P450 2C19 (Homo sapiens, UniProt P33261); assay: Cytochrome panel assay with activity outcomes. Panel member name: p450-cyp2c19 Compounds with AC50 equal or less than 10 uM are considered active; format: functional; details: read-out: AC50
Chain of Cytochrome P450 2C19 (P33261 whole entry): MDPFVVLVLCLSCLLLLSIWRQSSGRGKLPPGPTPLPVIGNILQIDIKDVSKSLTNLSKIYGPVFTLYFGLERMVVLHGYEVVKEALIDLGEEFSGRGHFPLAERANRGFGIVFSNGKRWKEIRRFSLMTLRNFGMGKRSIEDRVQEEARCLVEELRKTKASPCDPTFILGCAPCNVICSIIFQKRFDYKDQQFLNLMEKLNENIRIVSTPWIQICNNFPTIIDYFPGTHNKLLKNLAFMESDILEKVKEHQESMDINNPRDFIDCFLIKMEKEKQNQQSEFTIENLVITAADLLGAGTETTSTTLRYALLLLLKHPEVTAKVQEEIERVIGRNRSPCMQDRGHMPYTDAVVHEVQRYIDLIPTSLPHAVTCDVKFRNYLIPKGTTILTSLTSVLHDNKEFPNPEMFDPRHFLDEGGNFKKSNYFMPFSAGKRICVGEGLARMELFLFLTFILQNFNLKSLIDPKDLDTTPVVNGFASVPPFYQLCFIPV

Chain of Cytochrome P450 3A4 (P08684 whole entry): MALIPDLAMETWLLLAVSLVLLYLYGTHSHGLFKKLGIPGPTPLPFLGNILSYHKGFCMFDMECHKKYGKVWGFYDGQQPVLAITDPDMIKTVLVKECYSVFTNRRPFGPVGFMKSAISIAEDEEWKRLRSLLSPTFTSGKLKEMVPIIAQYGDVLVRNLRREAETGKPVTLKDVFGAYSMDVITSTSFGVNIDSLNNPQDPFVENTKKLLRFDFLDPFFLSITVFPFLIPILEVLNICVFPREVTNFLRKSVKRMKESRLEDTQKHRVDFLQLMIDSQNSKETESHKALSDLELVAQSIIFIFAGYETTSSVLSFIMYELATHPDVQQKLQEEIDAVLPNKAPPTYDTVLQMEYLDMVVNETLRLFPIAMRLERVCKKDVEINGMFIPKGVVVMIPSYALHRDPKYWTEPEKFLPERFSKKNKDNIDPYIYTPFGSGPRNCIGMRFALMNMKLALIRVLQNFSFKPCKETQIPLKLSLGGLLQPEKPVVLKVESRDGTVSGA
Chain of Paired box protein Pax-8 (Q06710 whole entry): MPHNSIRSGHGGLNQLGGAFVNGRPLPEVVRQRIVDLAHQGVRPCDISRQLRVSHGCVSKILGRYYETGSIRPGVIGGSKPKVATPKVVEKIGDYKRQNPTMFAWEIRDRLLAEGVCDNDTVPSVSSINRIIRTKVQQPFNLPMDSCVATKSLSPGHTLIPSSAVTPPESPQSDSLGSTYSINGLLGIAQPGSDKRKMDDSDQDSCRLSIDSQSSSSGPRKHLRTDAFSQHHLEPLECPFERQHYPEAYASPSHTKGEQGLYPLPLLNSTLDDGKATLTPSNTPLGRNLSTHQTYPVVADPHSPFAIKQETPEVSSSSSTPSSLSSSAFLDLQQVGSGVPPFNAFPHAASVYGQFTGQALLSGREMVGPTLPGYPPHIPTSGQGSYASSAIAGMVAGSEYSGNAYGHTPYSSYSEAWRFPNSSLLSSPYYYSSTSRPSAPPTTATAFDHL
Chain of Cytochrome P450 2C9 (P11712 whole entry): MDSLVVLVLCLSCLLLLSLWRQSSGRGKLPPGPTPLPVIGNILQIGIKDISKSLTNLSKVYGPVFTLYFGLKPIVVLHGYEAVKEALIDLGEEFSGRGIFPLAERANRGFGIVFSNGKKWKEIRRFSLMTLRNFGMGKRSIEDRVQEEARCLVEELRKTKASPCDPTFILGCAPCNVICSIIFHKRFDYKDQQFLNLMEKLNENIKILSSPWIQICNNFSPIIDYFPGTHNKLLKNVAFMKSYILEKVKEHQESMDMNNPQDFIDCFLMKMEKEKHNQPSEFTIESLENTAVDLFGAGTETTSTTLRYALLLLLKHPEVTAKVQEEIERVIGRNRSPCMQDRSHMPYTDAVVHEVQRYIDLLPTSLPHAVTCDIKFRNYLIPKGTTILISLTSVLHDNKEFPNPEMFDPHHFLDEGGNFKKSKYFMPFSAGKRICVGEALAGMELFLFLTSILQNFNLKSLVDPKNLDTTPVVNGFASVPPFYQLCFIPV

N#Cc1ccc(NCCc2ccccn2)c([N+](=O)[O-])c1
EC50 [1]: 23.7 µM (active)
EC50 [2]: > 120 µM (not active)
EC50 [3]: > 120 µM (not active)

CCc1cccc(CC)c1N1C(=O)C2=C(SCCCS2)C1=O
EC50 [4]: 6.9 µM (active)

C[C@@H]1CCCCO[C@H](CN(C)C(=O)Nc2ccc(C(F)(F)F)cc2)[C@@H](C)CN([C@@H](C)CO)C(=O)c2cc(NC(=O)Nc3ccccc3)ccc2O1
AC50 [5]: 1.89 µM (active)

Sc1nnc(C2CCCCC2)n1/N=C/c1c(Cl)cccc1Cl
EC50 [6]: > 150 µM (not active)
EC50 [7]: 71.9 µM (active)
EC50 [8]: 10.1 µM (active)

Nc1nc2c3ccccc3nc(Cc3ccccc3)n2n1
EC50 [1]: 29.4 µM (active)
EC50 [2]: > 120 µM (not active)
EC50 [3]: 20.8 µM (active)

COCCN(CCOC)S(=O)(=O)c1ccc(C(=O)Nc2nc(C)c(C(C)=O)s2)cc1
AC50 [9]: 3.16 µM (inconclusive)
AC50 [10]: 0.1 µM (inconclusive)
AC50 [11]: 20 µM (inconclusive)

Cc1ccc(-n2c(C)cc(C(=O)CN3C(=O)C(=O)N(C4CCCC4)C3=O)c2C)cc1
EC50 [4]: > 53 µM (inactive)

COc1ccc(/C(C)=N/NC(=O)c2ccc(N(C)C)cc2)cc1
AC50 [10]: 10 µM (inconclusive)

Cc1ccc(C(=O)NCCn2cc(SCC(=O)N3CCOCC3)c3ccccc32)cc1
EC50 [12]: > 195 µM (not active)

CNC(=O)c1[nH]cnc1C(=O)Nc1ccccc1C
EC50 [12]: > 195 µM (not active)

C[C@@H]1CN([C@@H](C)CO)C(=O)Cc2cc(NC(=O)C3CC3)ccc2O[C@H]1CN(C)Cc1ccc(-c2ccccc2)cc1
AC50 [5]: 18.9 µM (active)

Cc1cccc(N2CCN(Cc3nc(-c4ccccc4Cl)oc3C)CC2)n1
EC50 [12]: > 195 µM (not active)

CC(C)CCN(C(=O)CNC(=O)c1cccs1)C(C(=O)NC1CCCCC1)c1cccnc1 (stereo not given)
EC50 [12]: > 195 µM (not active)

Cc1cc(C)c2c(O)nc(SCC(=O)N(C)C)nc2n1
AC50 [10]: 15.8 µM (inconclusive)

Cc1ccc(S(=O)(=O)Nc2ccc3c(c2)C(=O)N([C@@H](C)CO)C[C@@H](C)[C@@H](CN(C)Cc2ccc(Cl)c(Cl)c2)OCCCC[C@@H](C)O3)cc1
AC50 [5]: 9.18 µM (active)

O=C(Nc1cccc(Cl)c1)c1ccc(S(=O)(=O)NCC2CCCO2)cc1 (stereo not given)
EC50 [12]: > 195 µM (not active)

CC(CO)(CO)Nc1ncnc2ccccc12
AC50 [10]: 6.31 µM (inconclusive)

O=C(O)C1CCC(=O)N(C2CCCCC2)C1c1ccccc1Cl (stereo not given)
EC50 [12]: > 195 µM (not active)

CCCC(=O)Nc1ccc2c(c1)nc(CCNC(=O)c1ccccc1)n2C
EC50 [6]: > 150 µM (not active)
EC50 [7]: > 150 µM (not active)
EC50 [8]: > 150 µM (not active)

CC1Cc2ccccc2N1C(=O)CO/N=C/c1ccc(OC(F)F)cc1 (stereo not given)
EC50 [12]: > 195 µM (not active)

CC1CCC(C(C)C)C(OCC(O)CN2CCN(Cc3ccccc3)CC2)C1 (stereo not given)
AC50 [10]: 12.6 µM (inconclusive)
AC50 [11]: 1.41 µM (inconclusive)

Clc1ccc(Sc2cc(N3CCOCC3)nc(-c3ccccc3)n2)cc1
AC50 [9]: 15.8 µM (inconclusive)
AC50 [10]: 1.41 µM (inconclusive)

Cn1nnnc1SCc1ccc(C(=O)Nc2ccc(Br)cc2)cc1
AC50 [10]: 6.31 µM (inconclusive)
AC50 [13]: 6.31 µM (inconclusive)
AC50 [11]: 2 µM (inconclusive)

COc1ccc(S(=O)(=O)N2CCCC2)cc1C(C)C
EC50 [12]: > 195 µM (not active)

CN1C(=O)/C(=C/c2ccccc2F)Sc2ccc(C(=O)NCC3CCCO3)cc21 (stereo not given)
EC50 [6]: > 150 µM (not active)
EC50 [7]: 15.6 µM (active)
EC50 [8]: 1.09 µM (active)

COc1ccc(-c2nc3cnc(N4CCOCC4)nc3n(CCc3ccccc3)c2=O)cc1
AC50 [10]: 10 µM (inconclusive)

CC1CCCN(S(=O)(=O)c2ccc(C(=O)Nc3nnc(C4CC4)o3)cc2)C1 (stereo not given)
EC50 [6]: > 150 µM (not active)
EC50 [7]: 13.8 µM (active)
EC50 [8]: 4.14 µM (active)

Cc1ccc(/C=N/n2cnnc2)s1
AC50 [9]: 15.8 µM (inconclusive)
AC50 [10]: 22.4 µM (inconclusive)
AC50 [13]: 11.2 µM (inconclusive)
AC50 [11]: 14.1 µM (inconclusive)

Cc1cc(NC(=O)CN2C(=O)NC(C)(c3ccc(OC(F)F)cc3)C2=O)no1 (stereo not given)
EC50 [4]: 14.4 µM (active)

COC(C(=O)Nc1ccnn1C1CCN(Cc2nccs2)CC1)c1ccccc1 (stereo not given)
EC50 [6]: > 150 µM (not active)
EC50 [7]: > 150 µM (not active)
EC50 [8]: > 150 µM (not active)

COc1ccc2nc(N3C(=O)CC(Cc4ccc(Cl)cc4)C3=O)sc2c1 (stereo not given)
AC50 [10]: 2.24 µM (inconclusive)

CC1=NN(c2ccc([N+](=O)[O-])cc2)C(=O)/C1=C\N(C)C
EC50 [6]: > 150 µM (not active)
EC50 [7]: 10.9 µM (active)
EC50 [8]: 5.85 µM (active)

CCN(CC)C(=O)c1cc(-c2ccc(Br)cc2)on1
EC50 [6]: > 150 µM (not active)
EC50 [7]: > 150 µM (not active)
EC50 [8]: > 150 µM (not active)

Fc1cccc(CSc2ncnc3c2ncn3[C@H]2CCCS2)c1
AC50 [10]: 0.501 µM (inconclusive)
AC50 [13]: 3.98 µM (inconclusive)

CCOC(=O)C(O)(c1ccc(NC(=S)NC(=O)c2ccc(Cl)cc2Cl)cc1)C(F)(F)F (stereo not given)
EC50 [4]: 15.9 µM (active)

COc1ccc(CSCCNC(=S)Nc2ccccc2)cc1Cl
EC50 [6]: > 150 µM (not active)

C=CCC(NCc1ccco1)c1ccc(OC)cc1 (stereo not given)
AC50 [9]: 22.4 µM (inconclusive)
AC50 [10]: 28.2 µM (inconclusive)

CCc1cc(C(=O)NCC(C)(C)N2CCOCC2)sc1C
EC50 [12]: > 195 µM (not active)

Cc1noc(C)c1C(=O)Nc1nccs1
EC50 [6]: > 150 µM (not active)
EC50 [7]: > 150 µM (not active)
EC50 [8]: > 150 µM (not active)
